Laboratory results from US11524960B2, “Heterobicyclic inhibitors of MAT2A and methods of use for treating cancer” (AGIOS PHARMACEUTICALS, INC., priority 2018, dated 2022).

Legend:
[1] = target: T1, MAT2A homodimer (Homo sapiens, UniProt P31153); assay: Biochemical assay: inhibition of MAT2A (phosphate release, PiColorLock Gold); details: MAT2A IC50 score; read-out: Enzyme Inhibition (Example 275)
T1 construct: inferred from Ni sepharose purification and imidazole elution; made in house; host or cells: Sf9 insect cells, recombinant baculovirus (Bac to Bac, pFASTBAC1)
T1 sequence (P31153 whole entry): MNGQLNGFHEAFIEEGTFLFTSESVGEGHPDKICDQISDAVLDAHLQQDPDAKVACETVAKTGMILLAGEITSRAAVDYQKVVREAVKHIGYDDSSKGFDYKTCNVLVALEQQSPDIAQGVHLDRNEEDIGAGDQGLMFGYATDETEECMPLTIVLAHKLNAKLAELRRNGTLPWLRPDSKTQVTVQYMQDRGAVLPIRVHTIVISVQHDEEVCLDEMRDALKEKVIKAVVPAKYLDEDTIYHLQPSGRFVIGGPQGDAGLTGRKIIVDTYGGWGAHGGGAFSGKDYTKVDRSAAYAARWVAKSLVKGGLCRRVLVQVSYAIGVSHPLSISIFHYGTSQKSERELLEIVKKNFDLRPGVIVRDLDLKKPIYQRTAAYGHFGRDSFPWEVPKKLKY
Summary of the method: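 Phosphate formed alongside SAM was read with PiColorLock Gold and quantified against a potassium phosphate standard curve. Reactions ran 60 min at 25 °C after adding a substrate mix of 500 μM ATP and 400 μM L-methionine (mix concentrations). Compound had first been preincubated 60 min with recombinant Sf9-derived MAT2A homodimer ([…]) in pH 8.0 Tris buffer containing MgCl2, KCl, EDTA and BSA.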

[2] = system: SAM in HCT116 human colon carcinoma cell line engineered to delete the MTAP gene (MTAP −/−); assay: Cellular assay of target engagement (SAM) by LC-MS/MS; format: cell-based; details: Homo sapiens, HCT-116, 72 h, IC50 score, read-out: Cell 72 h SAM Inhibition (MTAP −/−; Example 276)
Experimental: Measurement of MAT2A activity in cells was made by direct quantitation of the abundance of the product of its enzymatic activity, SAM. Cancer cells were treated with candidate MAT2A inhibitors for a suitable incubation period, and the cells were then lysed using a reagent which quenched any further enzyme activity. Soluble metabolites including SAM were collected and SAM itself was directly measured from the lysate using quantitative LC-MS/MS.
A typical assay was performed using an HCT116 human colon carcinoma cell line which was genetically engineered to delete the MTAP gene (commercially available from Horizon Discovery). This cell line was utilized because it was determined that loss of the MTAP gene predicts sensitivity to MAT2A inhibitors. Cells were plated in 96-well dishes at appropriate cell density. Following 24 hours, cells were then treated with the candidate MAT2A inhibitor. Prior to addition to cells, the compound was first serially diluted in 100% DMSO, typically as a 3-fold serial dilution starting at 500× top dose with 10 dose points including DMSO only control. Compound was then transferred to a working stock plate in cell culture media by adding 5 μl of compound in DMSO to 495 μl of cell culture media. This working stock was then added to cells via a further 5-fold dilution, by adding 25 μl of working stock to 100 μl of cells in culture media. Following compound addition, cells were incubated at 37° C./5% CO2 for 72 hrs.
To quantitate SAM levels following compound treatment, cells were gently washed once in Ammonium Carbonate buffer (75 mM at pH 7.4), placed on dry ice, and lysed with metabolite extraction buffer (80% cold methanol and 20% water (v/v) with acetic acid at 1 M final concentration with 200 ng/mL deuterated d3-SAM as internal control). Following centrifugation at 4° C. at 3,200 rpm for 30 minutes, the supernatant was collected and stored at −80° C. until analysis by Liquid Chromatography with tandem Mass Spectrometry (LC-MS/MS). LC-MS/MS analysis was performed using an API6500 Mass Spectrometer (Sciex, Framingham, Mass., USA) operating in positive ion spray mode and equipped with a Waters UPLC Acquity (Waters, Milford, Mass., USA) BEH Amide column. Multiple Reaction Monitoring data was acquired for SAM and the d3-SAM standard, using a mass transition pair at m/z 399.2→250.1 and 402.2→250.1, respectively. In a typical LC-MS/MS analysis, the initial flow rate was 0.5 ml/min of 25% mobile phase A (acetonitrile and water at 5:95 (v/v) with 1% formic acid and 10 mM ammonium acetate) and 75% mobile phase B (acetonitrile and water at 95:5 (v/v) with 1% formic acid and 10 mM ammonium acetate), 0.2-0.5 minutes with 75%-35% mobile phase B, 25%-65% mobile phase A, at 0.5 min 65% mobile phase A and 35% mobile phase B, 1.0-1.1 minutes with 35%-75% mobile phase B, 65%-25% mobile phase A, at 1.1 min 25% mobile phase A and 75% mobile phase B with a total run time of 1.5 minutes.

[3] = system: HCT116 MTAP−/−; assay: Inhibition of cellular proliferation (Cell Titer Glo), HCT116 MTAP−/−; format: cell-based, human; details: Homo sapiens, HCT-116, 96 h, 4 days, IC50 score, read-out: 4 Day Relative Growth Inhibition (MTAP −/−; Example 277)
Experimental: (§1) Test compound impact on cancer cell growth was assessed by treating cancer cells with compound for 4 days and then measuring proliferation using an ATP-based cell proliferation readout (Cell Titer Glo, Promega Corporation).
(§2) In a typical assay an isogenic pair of HCT116 human colon carcinoma cell lines which vary only in MTAP deletion status (HCT116 MTAP+/+ and HCT116 MTAP−/−) were plated in 96-well dishes at appropriate cell density. Following 24 hours, cells were then treated with the candidate MAT2A inhibitor. Prior to addition to cells, the compound was first serially diluted in 100% DMSO, typically as a 3-fold serial dilution starting at 500× top dose with 10 dose points including DMSO only control. Compound was then transferred to a working stock plate in cell culture media by adding 5 μl of compound in DMSO to 495 μl of cell culture media. This working stock was then added to cells via a further 5-fold dilution, by adding 25 μl of working stock to 100 μl of cells in culture media. Following compound addition, cells were incubated at 37° C./5% C02 for 4 days.
(§3) To measure inhibition of cellular proliferation, cells were allowed to equilibrate to room temperature for 30 minutes, and were then treated with 125 μl of Cell Titer Glo reagent. The plate was then covered with aluminum foil and shaken for 15 minutes to ensure complete mixing and full cell lysis. Luminescent signal was then measured using a plate-based luminometer Veritas version 1.9.2 using ATP standard curve to confirm assay reproducibility from run to run. This luminescence measure was converted to a proliferation index by subtracting from each data point the ATP luminescence signal measured from a bank (no cells) well and dividing by the ATP luminescence signal measured in 0.2% DMSO control well adjusted for signal in blank well. Compound activity was then represented as a percentage change in proliferation relative to a within-plate DMSO control against log10 of compound concentration in molar (M) units.

[4] = system: HCT116 MTAP+/+; assay: Inhibition of cellular proliferation (Cell Titer Glo), HCT116 MTAP+/+; format: cell-based, human; details: Homo sapiens, HCT-116, 96 h, 4 days, IC50 score, read-out: 4 Day Relative Growth Inhibition (MTAP +/+; Example 277)
Experimental: as §1, §2, §3

SMILES | IC50 [1] [nM] | IC50 [2] [nM] | IC50 [3] [nM] | IC50 [4] [nM]
COc1ccc(-c2c(=O)n(-c3ccc4nn(C)cc4c3)cc3ncc(OCC(F)F)nc23)cc1 [Example 141-A] | < 100 | < 100 | < 100 | 100 to 10000
Cc1nc2ccc(-n3cc4cnc(NCC(F)(F)F)nc4c(-c4ccc(Cl)cc4)c3=O)cc2n1C [Example 124, 8-(4-chlorophenyl)-6-(1,2-dimethyl-1H-benzo[d]imidazol-6-yl)-2-((2,2,2-trifluoroethyl)amino)pyrido[4,3-d]pyrimidin-7(6H)-one] | < 100 | < 100 | < 100 | > 10000
CCOc1ccc2cn(-c3ccc4nn(C)c(C)c4c3)c(=O)c(-c3ccc(Cl)cc3)c2n1 [Example 105-A] | < 100 | < 100 | < 100 | 100 to 10000
CC(C)n1cc2cc(-n3cc4cnc(NCC(F)(F)F)nc4c(-c4ccc(OC(F)F)cc4)c3=O)ccc2n1 [Example 153, 8-(4-(difluoromethoxy)phenyl)-6-(2-isopropyl-2H-indazol-5-yl)-2-((2,2,2-trifluoroethyl)amino)pyrido[4,3-d]pyrimidin-7(6H)-one] | < 100 | < 100 | < 100 | > 10000
COc1ccc(-n2cc3cnc(NCC(F)(F)F)nc3c(-c3ccc(-c4cc[nH]n4)cc3)c2=O)cc1 [Example 202, 8-(4-(H-pyrazol-3-yl)phenyl)-6-(4-methoxyphenyl)-2-((2,2,2-trifluoroethyl)amino)pyrido[4,3-d]pyrimidin-7(6H)-one] | < 100 | 100 to 1000 | 100 to 10000 | > 10000
Cn1cc2cc(-n3cc4cnc(OCC(F)(F)F)nc4c(-c4ccc(OC(F)F)cc4)c3=O)ccc2n1 [Example 265, 8-(4-(difluoromethoxy)phenyl)-6-(2-methyl-2H-indazol-5-yl)-2-(2,2,2-trifluoroethoxy)pyrido[4,3-d]pyrimidin-7(6H)-one] | < 100 | < 100 | < 100 | > 10000
[2H]C([2H])([2H])Oc1ccc(-c2c(=O)n(-c3ccc4nn(C)cc4c3)cc3ccc(OCC(F)F)nc23)cc1 [Example 115-A] | < 100 | < 100 | < 100 | 100 to 10000
Cn1cnc2ccc(-n3cc4cnc(NCC(F)(F)F)nc4c(-c4ccc(OC(F)F)cc4)c3=O)cc21 [Example 151, 8-(4-(difluoromethoxy)phenyl)-6-(1-methyl-1H-benzo[d]imidazol-6-yl)-2-((2,2,2-trifluoroethyl)amino)pyrido[4,3-d]pyrimidin-7(6H)-one] | < 100 | < 100 | < 100 | 100 to 10000
Cc1nc2ccc(-n3cc4cnc(NCC(F)(F)F)nc4c(-c4ccc(OC(F)F)cc4)c3=O)cc2s1 [Example 150, 8-(4-(difluoromethoxy)phenyl)-6-(2-methylbenzo[d]thiazol-6-yl)-2-((2,2,2-trifluoroethyl)amino)pyrido[4,3-d]pyrimidin-7(6H)-one] | < 100 | < 100 | 100 to 10000 | 100 to 10000
Cn1cc2cc(-n3cc4ccc(OCC(F)F)nc4c(-c4ccc(OC(F)F)nc4)c3=O)ccc2n1 [Example 123-A] | < 100 | < 100 | < 100 | 100 to 10000
CCOc1cnc2cn(-c3ccc4nn(C)cc4c3)c(=O)c(-c3ccc(OC)cc3)c2n1 [Example 140-A] | < 100 | < 100 | < 100 | > 10000
CCOc1ccc2cn(-c3ccc(OC)cc3)c(=O)c(-c3ccc(OC(F)F)nc3)c2n1 [Example 129-A] | < 100 | < 100 | 100 to 10000 | 100 to 10000
CCOc1ccc2cn(-c3ccc4nn(C(C)C)cc4c3)c(=O)c(-c3ccc(Cl)cc3)c2n1 [Example 104-A] | < 100 | < 100 | 100 to 10000 | 100 to 10000
COc1ccc(-c2c(=O)n(-c3ccc4nccn4c3)cc3cnc(NCC(F)(F)F)nc23)cc1 [Example 143, 6-(imidazo[1,2-a]pyridin-6-yl)-8-(4-methoxyphenyl)-2-((2,2,2-trifluoroethyl)amino)pyrido[4,3-d]pyrimidin-7(6H)-one] | < 100 | 100 to 1000 | 100 to 10000 | > 10000
Cc1c2cc(-n3cc4cnc(NCC(F)(F)F)nc4c(-c4ccc(Cl)cc4)c3=O)ccc2nn1C [Example 132, 8-(4-chlorophenyl)-6-(2,3-dimethyl-2H-indazol-5-yl)-2-(2,2,2-trifluoroethylamino)pyrido[4,3-d]pyrimidin-7(6)-one] | < 100 | < 100 | < 100 | > 10000
Cn1cc2cc(-n3cc4ncc(OCC(F)F)nc4c(-c4ccc(OC(F)F)nc4)c3=O)ccc2n1 [Example 144-A] | < 100 | < 100 | 100 to 10000 | 100 to 10000
Cn1cc2cc(-n3cc4ccc(CCC(F)(F)F)nc4c(-c4ccc(Cl)cc4)c3=O)ccc2n1 [Example 138-A, 8-(4-chlorophenyl)-6-(2-methyl-2H-indazol-5-yl)-2-(3,3,3-trifluoropropyl)-1,6-naphthyridin-7(6H)-one] | < 100 | 100 to 1000 | 100 to 10000 | 100 to 10000
CCOc1ccc2cn(-c3ccc4nn(C)cc4c3)c(=O)c(-c3ccc(C4CC4)nc3)c2n1 [Example 221, 8-(6-cyclopropylpyridin-3-yl)-2-ethoxy-6-(2-methyl-2H-indazol-5-yl)-1,6-naphthyridin-7(6H)-one] | < 100 | < 100 | 100 to 10000 | > 10000
CCOc1ccc2cn(-c3ccc4nn(C)cc4c3)c(=O)c(-c3ccc(OC(F)(F)F)nc3)c2n1 [Example 133-A] | < 100 | < 100 | < 100 | 
